Data as given in patent US8435519B2, “Antibodies that bind alpha subunit of sodium potassium ATPase” (priority 2005, dated 2013).

How the values were obtained:
D-R region of NKA = biological target: T1, D-R region of NKA (Rattus norvegicus, UniProt P06685); test: Immunofluorescent staining of rat cardiac myocytes; format: binding; settings: ouabain 5, 10 and 20 mM
T1 construct: endogenous in cells; host or cells: isolated rat cardiac myocytes, frozen sections
Protocol: With both ouabain and SSA412: FIG. 5E: a group of cells with 5 mM ouabain at a magnification of 400×, FIG. 5F: a single cell with 5 mM ouabain at 1200×, FIG. 5G: cells with 10 mM ouabain, FIG. 5H: cells with 20 mM ouabain.
Isolated rat heart cells were incubated in 1 ml cold lysis buffer containing 150 mM NaCl, 10 mM EDTA, 1% NP-40, 1 mM Na3VO4, and 1× protease inhibitor cocktail as described, with or without antibody. Immunoprecipitates were boiled for 5 min and loaded on a 7% SDS gel, and transferred from the SDS gel to a nitrocellulose membrane. The nitrocellulose membrane was blocked with 5% nonfat milk for 1 hour and incubated with SSA412 or other control antibodies overnight at 4° C. Alkaline phosphatase conjugated secondary antibody (1:2500) was then incubated with the membrane for 1 hour and washed 3 times with TBS in 0.05% Tween-20. Color was developed using a reagent containing a mixture of NBT and BCIP (Promega Corporation, WI). For immunofluorescent staining, rat myocytes were frozen and cut on a cryostat. Sections (8 μm) of each tissue were blocked with 1% bovine serum albumin (BSA) and incubated with SSA412 (1:100) for 60 min in the presence or absence of 5, 10, and 20 mM ouabain. Washed slides were evaluated after incubation with a FITC conjugated goat anti-rabbit antibody (1:75).

[1] = tested on: α- and β-adrenergic receptors in isolated rat myocytes; test: Effect of α- and β-adrenergic receptor inhibitors on cell contraction; format: cell-based; settings: 1 μM isoproterenol, inhibitors 7 μM each
Protocol: Cell contractions were measured in the presence or absence of SSA412 (0.5 μM) with or without inhibitors. Black circles: with 1 μM isoproterenol. Open circles: with 1 μM isoproterenol+ both prazosin and propennol (7 μM each). Black triangles: with SSA412 in the presence of both prazosin and propennol (7 μM each). Data are presented as percent of control (n=8 cells for each group).
(§1) Myocytes were placed on an inverted microscope (Zeiss model IM-35), superfused with HEPES-buffered solution at a flow rate of 1.8 ml/min, and electrically stimulated at 0.5 Hz at 23° C. Cell length was monitored from the bright-field image (650 nm to 750 nm red light illumination) by an optical edge-tracking method using a photodiode array (model 1024 SAQ, Reticon) with a 3-ms time resolution. Contraction amplitude was measured as the percentage of shortening of cell length.

[2] = tested on: isolated rat cardiac myocytes; test: Intracellular Ca2+ transients and cell contraction; format: cell-based; settings: SSA412 + 0.5 mM peptide blocker
Protocol: Ventricular cardiac myocytes were isolated from adult Sprague-Dawley rats (2-3 months old, weight 225-300 g) using standard enzymatic technique as described previously.^1 Briefly, following anaesthesia (sodium pentobarbital, 100 mg/kg), the heart was quickly removed from the chest and aortic perfused at constant pressure at 37° C. for 3 min with a Ca^2+-free bicarbonate-based buffer containing 120 mM NaCL, 5.4 mM MgSO4, 1.2 mM NaH2PO4, 5.6 mM glucose, 20 mM NaHCO3, and 5 mM taurine, in the presence of O2 (95%)/CO2 (5%). Enzymatic digestion was initiated by adding collagenase (Worthington Type II, 1 mg/ml) to the perfusion solution. Calcium (50 μM) was added to the enzyme solution when the heart became swollen. About 7 min later, the left ventricle was quickly removed, cut into several pieces, and further digested on a shaker (60-70 rpm) for 10 min in the same enzyme solution. […]
as §1, with “length. […]” for “length.”

[3] = biological target: T2, purified ouabain-sensitive dog NKA (Canis lupus familiaris, UniProt P50997); test: NKA catalytic activity (ATPase assay, Kyte's method), purified dog NKA; format: biochemical; settings: FIG. 7, antibody + peptide blocker
T2 construct: 30 μg of purified dog kidney NKA; from tissue; host or cells: dog kidney
Protocol: A first series of experiments were conducted testing whether antibody SSA412, binding to the D-R region of the alpha 1-subunit, affects NKA activity. NKA activity was determined based on Jack Kyte's method as previously described [17, which is hereby incorporated by reference as if set forth fully herein]. […] FIG. 2A and FIG. 2B show the time course of activation of purified rat (FIG. 2A: 0.125 mg/ml, ouabain-resistant) or dog (FIG. 2B: 0.125 mg/ml, ouabain-sensitive) NKA incubated with SSA412 (0.5 and 1.0 μM) or with 1.0 μM normal rabbit total IgG at 4° C. or at room temperature (FIG. 2C and FIG. 2D). The control is indicated by closed circles, […] SSA412 by open circles, […] SSA412 by closed triangles and […] rabbit IgG by open triangles.
NKA activity was determined based on Jack Kyte's method as previously described under various experimental conditions as indicated in FIG. 2. All NKA activities in different experiments are ouabain-sensitive activity. Purified ouabain-resistant rat NKA and ouabain-sensitive dog NKA were used to verify the data. Enzymes were incubated with or without SSA412 for 60 min at room temperature. The reaction was initiated by adding different concentrations of MgATP in a final volume of 0.25 ml at 37° C. for 30 min and terminated by adding 0.75 ml quench solution and 0.025 ml developer. Color was developed for 30 minutes at room temperature and the concentration of phosphate was then determined at 700 nm using a spectrophotometer. NKA turnover number (kcat) was calculated using the equation kcat=Vmax/Et, where Vmax is the maximal velocity (rate of reaction) and Et represents enzyme concentration.

## C[C@@H]1O[C@@H](O[C@H]2C[C@@H](O)[C@]3(CO)[C@H]4[C@H](O)C[C@]5(C)[C@@H](C6=CC(=O)OC6)CC[C@]5(O)[C@@H]4CC[C@]3(O)C2)[C@H](O)[C@H](O)[C@H]1O [Ouabain, ouabain]
D-R region of NKA
  competition with SSA412 binding to the D-R region of NKA: does not compete

## COc1cc2nc(N3CCN(C(=O)c4ccco4)CC3)nc(N)c2cc1OC [prazosin]
[1]
  effect of inhibitor on action of the agonist isoproterenol: eliminated

## CC(C)NCC(O)COc1cccc2ccccc12 (stereo not shown) [propennol]
[1]
  effect of inhibitor on action of the agonist isoproterenol: eliminated

## DVEDSYGQQWTYEQR (Activation site of the (Na+K)-ATPase)
[2]
  SSA412-induced increase in calcium and contraction in presence of peptide blocker: blocked

## KRQPRNPKTDKLVNE (Activation site of the (Na+K)-ATPase) [PB95]
[3]
  antibody-induced increase in NKA in presence of respective peptide blocker: blocked

## RSATEEEPPNDD (Activation site of the (Na+K)-ATPase) [PB78]
[3]
  antibody-induced increase in NKA in presence of respective peptide blocker: blocked

## VPAISLAYEQAESD (VPASLAYEQAESD; Activation site of the (Na+K)-ATPase) [PB97]
[3]
  antibody-induced increase in NKA in presence of respective peptide blocker: blocked
